Data set [1] is described as follows: In vitro drug release from alginate capsules loaded with crystalline or amorphous formulations. The data set is classed as physicochemical. To be noted: accelerated release conditions (+ SDS). How it is done:
Release study was carried out in 3 different media, a normal saline-Isopropyl alcohol (10%) mixture, a phosphate buffer (pH 7.4), or for accelerated condition with phosphate buffered saline (pH 7.4) either with 0.1% w/v or 03% w/v SDS. Release study at NS+10% IPA was carried out in 2 ml medium at 37° C. Sampling was carried out by replacement of 1.5 ml of release medium by total replacement of release medium with fresh medium. […] For release in accelerated condition (PBS+SDS), the same time points were followed while 20 μl of drug loaded capsules were incubated in 2 ml release medium to achieve sink conditions. Drug concentration in samples was measured by reverse phase HPLC on C-18 column with a mobile phase or using UV calibrated system. An isocratic mode was set at a flow rate of 0.5-2 ml/min and a different wave-length of nm and 20-50 μl of samples was injected into an HPLC system (Waters, LC-Module-I) or UV analyzed. Calibration curves were prepared in concentration range of 0.05-10 μg/ml. Using prepared calibration curves, drugs concentration in different release samples were calculated.

Another data set has as its system C57BL/6 mice. Kind of data set: Anti-fibrotic screening of amorphous drug formulations in 500 μm alginate capsules, 2-week intraperitoneal implantation. It is filed as in vivo. The following applies: conclusion; alginate hydrogel, ceramic, glass, PDMS and polystyrene beads. An excerpt: For screening of anti-fibrotic drug activity, amorphous drug formulations were encapsulated inside 500 μm alginate capsules. Broad-spectrum anti-inflammatory agents curcumin, dexamethasone, and rapamycin have been used for preventing fibrosis of various biomaterials, such as polymer PLGA and hydrogel alginate. A panel of lead drug candidates (e.g., compounds of Formulae I-X) including the traditional broad-spectrum anti-inflammatories as well as agents targeted to essential macrophage biology pathways (e.g., TNFα, NFκB, p110δ/PI3K, TGFβ, and CSF1R) were selected. […] SLG20 alginate hydrogel spheres with these lead drug candidates were prepared as amorphous formulations to investigate the effect of macrophage immunomodulation on foreign body response. Drugs were encapsulated in amorphous form prepared by first dissolving in an organic solvent (e.g., vehicle in FIGS. 7, 9) then by mixing with alginate aqueous solution. Efficacy in preventing fibrosis was assessed in C57BL/6 mice at 2-weeks post implantation into the intraperitoneal (IP) cavity. Drug-containing spheres (500 μl/animal) were then implanted into the intraperitoneal space of C57BL/6 mice for 14 days. After this period, spheres were harvested and studied for cellular deposition and fibrosis.
All animal protocols were approved by the MIT Committee on Animal Care, and all surgical procedures and post-operative care was supervised by MIT Division of Comparative Medicine veterinary staff. Immune-competent male non-diabetic or STZ-induced diabetic C57BL/6 mice (Jackson Laboratory, Bar Harbor, Me.) were anesthetized with 3% isoflurane in oxygen and had their abdomens shaved and sterilized using betadine and isopropanol. Preoperatively, all mice also received a 0.05 mg/kg dose of buprenorphine subcutaneously as a pre-surgical analgesic, along with 0.3 mL of 0.9% saline subcutaneously to prevent dehydration. A […] incision was made along the midline of the abdomen and the peritoneal lining was exposed using blunt dissection. […]

Data set [2] relates to host (mouse) alpha smooth muscle actin (αSMact). Kind of data set: qPCR of explanted capsules, host fibrosis marker. The following applies: explanted at approximately 430 (amorphous) or 460 (crystalline) days post-transplant. The data set is classed as in vivo. An excerpt: Total RNA was isolated from fibrosed spheres (with adhered tissue and immune overgrowth, if present), liquid nitrogen snap-frozen immediately following excision, using TRIzol (Invitrogen, Carlsbad, Calif.) according to the manufacturer's instructions. In addition, to help ensure complete tissue disruption, we also employed strong mechanical disruption with a Polytron homogenizer. Thus, gene expression signatures shown throughout are proportional and representative of the entire cell population present on and/or around retrieved materials. […] Mouse (5′-[…]-3′ (SEQ. ID. No.:1); reverse: 5′-CGGGTTCCGCTGTGTAAG-3′ (SEQ. ID. No.:2)) and rat (5′-CTCTCGTGCCATGTGAACC-3′ (SEQ. ID. No.:3); reverse: 5′-[…]-3′ (SEQ. ID. No.:4)) Pdx1 primers were designed using Primer Express software (Applied Biosystems, Carlsbad, Calif., USA) and evaluated using LaserGene software (DNAStar, Madison, Wis., USA) to ensure species rat (encapsulated islet) or mouse (host)-specificity, and normalized to mouse (5′-[…]-3′ (SEQ. ID. No.:5); reverse: 5′-[…]-3′ (SEQ. ID. No.:6)) and rat (5′-[…]-3′ (SEQ. ID. No.:7); reverse: 5′-[…]-3′ (SEQ. ID. No.:8)) Beta-actin, respectively. […] Results were analyzed using the comparative CT (ΔΔCT) method as described by the manufacturer. […]
(In qPCR the cycle at which signal appears reflects the starting amount.)

Structures are written as SMILES.

Regarding `COc1ccc(COc2ccc(Cc3cnc(N)nc3N)cc2OC)cc1` [GW2580, 5-[[3-Methoxy-4-[(4-methoxyphenyl)methoxy]phenyl]methyl]-2,4-pyrimidinediamine], the drug release profile result in data set [1] (amorphous form in 2000 μm alginate capsules) is given as “Higher drug release”; in data set [1] (pure crystalline formulations in 2000 μm alginate capsules), “released the drug more slowly initially, but continued releasing drugs for a much longer period of time”. Also, in the data set with C57BL/6 mice, the “efficacy in inhibiting fibrosis of implanted biomaterial” value is on record as “demonstrated efficacy in inhibiting fibrosis”. In data set [2], the “lower αSMact expression, crystal versus amorphous capsules” value is given as 74%.

Values taken from patent publication US10851069B2, “Compositions of crystallized hydrophobic compounds and methods of making and using same” (Massachusetts Institute of Technology, priority 2016, dated 2020).
